Measured values published in ChEMBL document CHEMBL5465560, “Selectivity Literature for EUbOPEN Chemogenomic Library” (2024).

Key:
[1] = target: T1, Protein kinase C epsilon type (Homo sapiens) (UniProt Q02156); test: Selectivity interaction (Upstate Kinase Profiler service (Millipore)) EUB0000056c PRKCE; details: at 1 µM
T1 sequence (whole entry): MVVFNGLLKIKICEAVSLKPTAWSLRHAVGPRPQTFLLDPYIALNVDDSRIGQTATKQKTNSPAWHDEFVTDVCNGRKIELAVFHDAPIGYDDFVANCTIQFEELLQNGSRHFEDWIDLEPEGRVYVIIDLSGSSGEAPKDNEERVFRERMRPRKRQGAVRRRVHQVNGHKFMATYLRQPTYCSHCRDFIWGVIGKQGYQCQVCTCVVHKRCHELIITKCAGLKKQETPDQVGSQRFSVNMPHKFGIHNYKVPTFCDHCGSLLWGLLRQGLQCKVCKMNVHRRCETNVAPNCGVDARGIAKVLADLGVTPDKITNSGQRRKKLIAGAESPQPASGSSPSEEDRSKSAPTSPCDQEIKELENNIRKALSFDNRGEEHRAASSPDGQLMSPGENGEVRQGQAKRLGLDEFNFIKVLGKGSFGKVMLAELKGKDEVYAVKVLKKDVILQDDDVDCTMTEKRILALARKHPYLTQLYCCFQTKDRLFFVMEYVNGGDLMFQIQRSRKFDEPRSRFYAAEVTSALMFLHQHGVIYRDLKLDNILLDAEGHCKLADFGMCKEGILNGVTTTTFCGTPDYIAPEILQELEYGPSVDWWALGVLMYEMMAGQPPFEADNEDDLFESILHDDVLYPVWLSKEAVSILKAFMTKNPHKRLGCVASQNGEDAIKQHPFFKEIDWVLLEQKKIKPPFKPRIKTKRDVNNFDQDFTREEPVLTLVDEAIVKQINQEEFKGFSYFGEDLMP

[2] = target: T2, Mitogen-activated protein kinase kinase kinase 5 (Homo sapiens) (UniProt Q99683); test: Selectivity interaction (ActivX KiNativ screen (kinase selectivity in THP-1 cell lysates)) EUB0000639a MAP3K5; assay type: subcellular; details: lysate, at 0.01 µM
T2 sequence (whole entry): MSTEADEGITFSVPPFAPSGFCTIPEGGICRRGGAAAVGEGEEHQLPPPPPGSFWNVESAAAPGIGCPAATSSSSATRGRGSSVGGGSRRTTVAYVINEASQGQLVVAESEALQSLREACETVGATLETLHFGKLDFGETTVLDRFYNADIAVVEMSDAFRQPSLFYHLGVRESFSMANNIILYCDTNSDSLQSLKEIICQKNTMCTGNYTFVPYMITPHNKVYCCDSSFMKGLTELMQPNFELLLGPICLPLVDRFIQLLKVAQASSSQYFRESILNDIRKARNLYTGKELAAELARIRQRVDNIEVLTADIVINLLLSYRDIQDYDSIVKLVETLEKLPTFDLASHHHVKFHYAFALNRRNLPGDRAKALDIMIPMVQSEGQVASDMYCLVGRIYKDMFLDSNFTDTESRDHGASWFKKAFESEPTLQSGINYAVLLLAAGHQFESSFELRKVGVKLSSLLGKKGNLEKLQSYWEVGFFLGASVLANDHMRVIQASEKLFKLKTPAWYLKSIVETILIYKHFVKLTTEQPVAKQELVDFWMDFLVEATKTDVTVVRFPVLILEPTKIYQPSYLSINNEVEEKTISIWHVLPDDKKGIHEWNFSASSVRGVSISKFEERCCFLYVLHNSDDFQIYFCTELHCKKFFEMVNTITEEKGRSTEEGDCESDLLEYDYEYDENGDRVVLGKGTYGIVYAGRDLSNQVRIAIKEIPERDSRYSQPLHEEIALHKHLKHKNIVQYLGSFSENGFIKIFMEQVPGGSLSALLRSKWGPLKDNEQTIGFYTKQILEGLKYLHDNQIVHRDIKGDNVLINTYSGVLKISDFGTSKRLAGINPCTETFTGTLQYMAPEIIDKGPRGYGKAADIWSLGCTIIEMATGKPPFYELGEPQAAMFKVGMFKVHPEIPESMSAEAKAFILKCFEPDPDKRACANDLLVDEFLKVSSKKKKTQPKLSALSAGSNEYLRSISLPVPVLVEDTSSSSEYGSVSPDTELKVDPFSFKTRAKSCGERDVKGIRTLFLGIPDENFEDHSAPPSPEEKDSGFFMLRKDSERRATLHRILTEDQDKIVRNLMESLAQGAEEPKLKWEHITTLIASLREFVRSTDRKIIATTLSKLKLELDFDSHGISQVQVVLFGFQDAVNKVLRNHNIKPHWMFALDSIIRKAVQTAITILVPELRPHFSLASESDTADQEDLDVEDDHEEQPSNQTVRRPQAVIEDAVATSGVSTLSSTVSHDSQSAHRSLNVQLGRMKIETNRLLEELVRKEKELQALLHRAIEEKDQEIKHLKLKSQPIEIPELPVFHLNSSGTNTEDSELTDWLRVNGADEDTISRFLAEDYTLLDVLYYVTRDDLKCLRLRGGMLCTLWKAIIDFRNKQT

Row | SMILES | % of inhibition [1] [%] | % of inhibition [2] [%]
1 | Cc1ccc(-c2ccc3c(ccc4sc5c(c43)NC[C@@H](C)NC5=O)n2)cn1 | 8 | –
2 | CC[C@@H]1[C@H](F)C(=O)N[C@@H]1COc1nccc2cc(C(N)=O)c(OC)cc12 [ZIMLOVISERTIB] | – | -5.8
